Results from patent US9992997B2, “Composition comprising bromadiolone, rodenticide bait, and method for controlling target rodent pests” (priority 2014, dated 2018).
Where two headings read alike, the source gives them in different places.

How the values were obtained:
Sprague Dawley rats = experiment: Multi-feeding administration of composition concentrated in Homo-SI, coagulation time (Quick time); assay type: in vivo; details: daily dose of 0.25 mg during 3 consecutive days, male or female rat
Procedure: Administration of a Composition Concentrated in Homo-SI by Multiple Ingestions (“Multi-Feeding”)
A composition of bromadiolone comprising 96% Homo-SI and 4% Hetero-SI is administered daily by tube-feeding during three days (D0, D+1 and D+2) to groups of 3 male or female laboratory rats (Sprague Dawley rats of 200 g) in an amount of: • 0.05 mg of bromadiolone per kilogram of rat, or • 0.1 mg of bromadiolone per kilogram of rat, or • 0.25 mg of bromadiolone per kilogram of rat, or • 0.5 mg of bromadiolone per kilogram of rat, or • 0.75 mg of bromadiolone per kilogram of rat.
On these rats blood samples are taken and on D+3 the coagulation time (Quick time, expressed in seconds) of the plasma is measured by means of the “Neoplastine CI Determination of Prothrombin Time” kit (Diagnostica Stago, Asnière, France) by measurement on a Thrombotimer option 2 plus apparatus (Behnk Electronik, Norderstedt, Germany).
The results obtained are given in FIG. 5, on which the hatched histograms represent the coagulation time of the female rats and the solid histograms represent the coagulation times of the male rats. By way of indication, the normal value for the coagulation time of untreated rats is of the order of 10 to 20 seconds.

[1] = Hepatic persistence of Homo-SI/Hetero-SI mixtures in the female rat; assay type: in vivo, female rats
Procedure: Hepatic Persistence of the Homo-SI and Hetero-SI Configurational Stereoisomers of Bromadiolone in the Female Rat
The following compositions concentrated in the Homo-SI or Hetero-SI configurational stereoisomers are prepared by one of the chromatography methods described above, in which the molar ratios are as follows: • Homo-SI/Hetero-SI: 80/20; • Homo-SI/Hetero-SI: 20/80.
The procedure with the female rats is the same as that with the male rats as described above. The mean hepatic contents of the Homo-SI and Hetero-SI isomers of the female rats are analysed by HPLC and are given in Table 4 below.

[2] = Hepatic persistence of Homo-SI/Hetero-SI mixtures in the male rat; assay type: in vivo, male Sprague Dawley rats
Procedure: Hepatic Persistence of the Homo-SI and Hetero-SI Configurational Stereoisomers of Bromadiolone in the Male Rat
The following compositions concentrated in the Homo-SI or Hetero-SI configurational stereoisomers are prepared by one of the chromatography methods described above, in which the molar ratios are as follows: • Homo-SI/Hetero-SI: 80/20; • Homo-SI/Hetero-SI: 4/96.
On D0 16 male laboratory rats (Sprague Dawley rats, Charles River, Saint germain sur l'Arbresle, France) having a body weight of the order of 200 g are tube-fed with a dose of the 80/20 mixture or the 4/96 mixture above in an amount of 3.8 mg of bromadiolone per kilogram of rat. The rats are kept alive by daily subcutaneous injection of a solution of vitamin K. On D+1, D+3, D+5 and D+10, 4 rats are anaesthetised with isoflurane and then sacrificed, and the livers are removed and frozen until analysed.

[3] = Hepatic persistence in the rat after single tube-feeding of Homo-SI or Hetero-SI; assay type: in vivo, Sprague Dawley rats
Procedure: Hepatic Persistence of the Homostereoisomer (Homo-SI) and the Heterostereoisomer (Hetero-SI) of Bromadiolone in the Rat
On D0 laboratory rats (Sprague Dawley rats, Charles River, Saint germain sur l'Arbresle, France) having a body weight of the order of 200 g are tube-fed with a solution of Homo-SI in a mixture of oil/DMSO or with a solution of Hetero-SI in an identical mixture of oil/DMSO in an amount of 3.0 mg of bromadiolone per kilogram of rat. The rats are kept alive by daily subcutaneous injection of a solution of vitamin K in an amount of 0.1 U per rat. On D+1, D+3, D+7, D+14 and D+21 4 rats are anaesthetised with isoflurane and then sacrificed, and the livers are removed and frozen until analysed. The course with respect to time of the mean hepatic contents of the configurational stereoisomers “Homo-SI” (▪) and “Hetero-SI” (◯) are analysed by HPLC, given in Table 2 below and shown in FIG. 4 (the symbol (▪) represents Homo-SI and the symbol (◯) represents Hetero-SI).

[4] = target: T1, Vitamin K Epoxide Reductase Complex 1 (VKORC1) (Rattus norvegicus, UniProt Q6TEK4); experiment: Inhibition of vitamin K epoxide reductase (VKOR) activity in vitro, rat liver microsomes; assay type: biochemical; details: microsomes of livers of rats sensitive to AVK; preparations 96% pure; read-out: inhibition constants (Ki) of VKOR activity
T1 construct: catalysed by microsomes of the livers of rats sensitive to anti-vitamin K (AVK) compounds; from tissue; host or cells: rat liver microsomes
T1 sequence (Q6TEK4 1-161): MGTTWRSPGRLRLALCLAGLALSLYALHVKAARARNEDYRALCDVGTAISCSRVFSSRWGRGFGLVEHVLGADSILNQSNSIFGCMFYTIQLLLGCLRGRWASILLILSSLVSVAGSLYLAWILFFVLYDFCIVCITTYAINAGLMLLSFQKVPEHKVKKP
Procedure: Inhibition of Vitamin K Epoxide Reductase Complex 1 (VKORC1) In Vitro by the Homostereoisomer and by the Heterostereoisomer of Bromadiolone
The inhibitory power of two preparations concentrated respectively in the homostereoisomer (Homo-SI) and heterostereoisomer (Hetero-SI) of bromadiolone was evaluated utilising measurement of the activity of vitamin K epoxide reductase (VKOR) catalysed by microsomes of the livers of rats sensitive to anti-vitamin K (AVK) compounds. The configurational stereoisomers of bromadiolone are partially purified by HPLC chromatography over a gradient of composition (A/B) as described in Table 1 above. The preparation concentrated in Homo-SI is made up of 96% Homo-SI and 4% Hetero-SI. The preparation concentrated in Hetero-SI is made up of 96% Hetero-SI and 4% Homo-SI. […] The inhibitory power on the toxicological target of each of the two isomers is therefore similar.

[5] = D + 1, 3.0 mg/kg tube-fed on D0, 3 mg/kg
[6] = D + 3, 3.0 mg/kg tube-fed on D0, 3 mg/kg
[7] = D + 7, 3.0 mg/kg tube-fed on D0, 3 mg/kg
[8] = D + 14, 3.0 mg/kg tube-fed on D0, 3 mg/kg

Compound: O=c1oc2ccccc2c(O)c1C(CC(O)c1ccc(-c2ccc(Br)cc2)cc1)c1ccccc1 (stereo not shown) [96/4]
- effect of repeated ingestion (anticoagulant effect, haemorrhage, death) (Sprague Dawley rats): sufficient to obtain an anticoagulant effect, a haemorrhage in the rat (male or female) and its death

Compound: O=c1oc2ccccc2c(O)c1C(CC(O)c1ccc(-c2ccc(Br)cc2)cc1)c1ccccc1 (stereo not shown) [Mixture 20/80, reference compound]
- Hepatic content of total bromadiolone ([1]; D + 9): 7.18 µg/g
- concentration at 1 day ([1]; female, Sprague Dawley, rat, liver, oral, 3.8 mg/kg, D + 1, read-out: Hepatic content of total bromadiolone): 32500 ng/g
- concentration at 3 day ([1]; female, Sprague Dawley, rat, liver, oral, 3.8 mg/kg, D + 3, read-out: Hepatic content of total bromadiolone): 24200 ng/g
- concentration at 5 day ([1]; female, Sprague Dawley, rat, liver, oral, 3.8 mg/kg, D + 5, read-out: Hepatic content of total bromadiolone): 16400 ng/g

Compound: O=c1oc2ccccc2c(O)c1C(CC(O)c1ccc(-c2ccc(Br)cc2)cc1)c1ccccc1 (stereo not shown) [Mixture 4/96, reference compound]
- Hepatic content of total bromadiolone ([2]; 3.8 mg/kg, D + 1, 3.8 mg/kg): 14.96 ± 2.0 µg/g
- Hepatic content of total bromadiolone ([2]; 3.8 mg/kg, D + 1, listed as 4/96 mixture, 3.8 mg/kg): 14.96 µg/g
- Hepatic content of total bromadiolone ([2]; 3.8 mg/kg, D + 3, 3.8 mg/kg): 10.08 ± 3.3 µg/g
- Hepatic content of total bromadiolone ([2]; 3.8 mg/kg, D + 5, 3.8 mg/kg): 9.99 ± 1.0 µg/g
- concentration at 10 day ([2]; male, Sprague Dawley, rat, liver, oral, 3.8 mg/kg, D + 10, read-out: Hepatic content of total bromadiolone): 2390 ng/g

Compound: O=c1oc2ccccc2c(O)c1C(CC(O)c1ccc(-c2ccc(Br)cc2)cc1)c1ccccc1 (stereo not shown) [Mixture 80/20]
- Hepatic content of total bromadiolone ([1]; D + 1): 25.39 µg/g
- Hepatic content of total bromadiolone ([1]; D + 3): 12.6 µg/g
- Hepatic content of total bromadiolone ([1]; D + 9): 2.47 µg/g
- Hepatic content of total bromadiolone ([2]; 3.8 mg/kg, D + 1, 3.8 mg/kg): 7.85 ± 0.51 µg/g
- Hepatic content of total bromadiolone ([2]; 3.8 mg/kg, D + 3, 3.8 mg/kg): 3.49 ± 0.29 µg/g
- Hepatic content of total bromadiolone ([2]; 3.8 mg/kg, D + 5, 3.8 mg/kg): 2.15 ± 0.90 µg/g
- Hepatic content of total bromadiolone ([2]; 3.8 mg/kg, D + 10, 3.8 mg/kg): 1.33 ± 0.14 µg/g
- hepatic persistence (comparison with Hetero-SI or 4/96 mixture) ([2]; listed as 80/20 mixture): less persistent
- concentration at 1 day ([2]; male, Sprague Dawley, rat, liver, oral, 3.8 mg/kg, D + 1, read-out: Hepatic content of total bromadiolone): 7850 ng/g

Compound: O=c1oc2ccccc2c(O)c1C(CC(O)c1ccc(-c2ccc(Br)cc2)cc1)c1ccccc1 (stereo not shown) [Homo-SI, 3-[3-(4′-bromo-[1,1′-biphenyl]-4-yl)-3-hydroxy-1-phenylpropyl]-4-hydroxy-2H-1-benzopyran-2-one]
- Hepatic content [3, 5]: 8.27 ± 2.72 µg/g
- Hepatic content [3, 6]: 2.34 ± 0.43 µg/g
- Hepatic content [3, 7]: 1.57 ± 0.21 µg/g
- Hepatic content [3, 8]: 0.99 ± 0.06 µg/g
- concentration at 21 day ([3]; Sprague Dawley, rat, liver, oral, 3 mg/kg, D + 21, 3.0 mg/kg tube-fed on D0, read-out: Hepatic content): 920 ± 80 ng/g
- hepatic persistence compared with Hetero-SI ([3]; rat, equal initial dose): significantly lower
- hepatic persistence compared with Hetero-SI [1]: significantly lower
- Ki [4]: ~30 nM
- hepatic persistence (comparison with Hetero-SI or 4/96 mixture) [2]: significantly lower

Compound: O=c1oc2ccccc2c(O)c1C(CC(O)c1ccc(-c2ccc(Br)cc2)cc1)c1ccccc1 (stereo not shown) [Hetero-SI, reference compound]
- Hepatic content [3, 5]: 18.62 ± 2.22 µg/g
- Hepatic content [3, 6]: 14.70 ± 1.06 µg/g
- Hepatic content [3, 7]: 5.20 ± 0.75 µg/g
- Hepatic content [3, 8]: 2.67 ± 1.07 µg/g
- Hepatic content ([3]; D + 21, 3.0 mg/kg tube-fed on D0, 3 mg/kg): 0.99 ± 0.07 µg/g
- Ki [4]: ~50 nM
